Data reported in ChEMBL document CHEMBL3046290, “Metabolic effects of benzylidene thiazolidinedione derivatives in high-fat fed mice” (Med Chem Res, 2012).

Experiments:
Mus musculus [1] = assay: Antihyperlipidemic activity in high-fat fed Mus musculus Swiss albino (mouse) assessed as reduction of serum triglyceride level at 30 mg/kg, po qd for 15 days; format: functional; set-up: scale not given: the % may be the effect or the level left
Mus musculus [2] = assay: Antihyperglycemic activity in high-fat fed Mus musculus Swiss albino (mouse) assessed as reduction of fasting serum insulin level at 30 mg/kg, po qd for 15 days; format: functional; set-up: scale not given: the % may be the effect or the level left
Mus musculus [3] = assay: Antihyperglycemic activity in high-fat fed Mus musculus Swiss albino (mouse) assessed as reduction of insulin resistance index at 30 mg/kg, po qd for 15 days; format: functional; set-up: scale not given: the % may be the effect or the level left
Mus musculus [4] = assay: Antihyperglycemic activity in high-fat fed Mus musculus Swiss albino (mouse) assessed as reduction of fasting serum glucose level at 30 mg/kg, po qd for 15 days; format: functional; set-up: scale not given: the % may be the effect or the level left
Mus musculus [5] = assay: Antihyperlipidemic activity in high-fat fed Mus musculus Swiss albino (mouse) assessed as reduction of serum cholesterol level at 30 mg/kg, po qd for 15 days; format: functional; set-up: scale not given: the % may be the effect or the level left
Mus musculus [6] = assay: Toxicity in high-fat fed Mus musculus Swiss albino (mouse) assessed as change in body weight at 30 mg/kg, po qd for 15 days (reference value: 39.9 +/- 1.3 g); format: organism-based; set-up: dose 30 mg/kg, route oral; settings: in vivo, 360 h

Compound: CN(CCOc1ccc(CC2SC(=O)NC2=O)cc1)c1ccccn1 (stereo not given) [ROSIGLITAZONE]
- Activity (Mus musculus [1]): 43%
- Activity (Mus musculus [2]): 48%
- Activity (Mus musculus [3]): 71%
- Activity (Mus musculus [4]): 44%
- Activity (Mus musculus [5]): 35%
- Activity (Mus musculus [6]): 5.28 g

Compound: Cc1ccc(CN2C(=O)S/C(=C\c3ccc(Cl)cc3)C2=O)cc1
- Activity (Mus musculus [1]): 42%
- Activity (Mus musculus [2]): 27%
- Activity (Mus musculus [3]): 49%
- Activity (Mus musculus [4]): 29%
- Activity (Mus musculus [5]): 40%
- Activity (Mus musculus [6]): 6.71 g

Compound: COc1ccc(/C=C2\SC(=O)N(Cc3ccc(C)cc3)C2=O)cc1
- Activity (Mus musculus [1]): 44%
- Activity (Mus musculus [2]): 65%
- Activity (Mus musculus [3]): 81%
- Activity (Mus musculus [4]): 46%
- Activity (Mus musculus [5]): 27%
- Activity (Mus musculus [6]): 5.12 g

Compound: Cc1ccc(CN2C(=O)S/C(=C\c3ccc(N(C)C)cc3)C2=O)cc1
- Activity (Mus musculus [1]): 23%
- Activity (Mus musculus [2]): 56%
- Activity (Mus musculus [3]): 73%
- Activity (Mus musculus [4]): 38%
- Activity (Mus musculus [5]): 22%
- Activity (Mus musculus [6]): 5.88 g

Compound: COc1ccc(/C=C2\SC(=O)N(Cc3ccc(C)cc3)C2=O)c(OC)c1
- Activity (Mus musculus [1]): 38%
- Activity (Mus musculus [2]): 33%
- Activity (Mus musculus [3]): 57%
- Activity (Mus musculus [4]): 36%
- Activity (Mus musculus [5]): 36%
- Activity (Mus musculus [6]): 6.06 g
